The results in this text go back to patent publication US8574563B2 (Bristol-Myers Squibb Company, priority 2006, dated 2013).

The test system of the first experiment is HCV 1b-377-neo replicon cells. Put plainly: HCV replicon assay, HCV 1b-377-neo replicon cells (1b FRET). In kind it is cell-based, Hepatitis C virus genotype 1b. As to conditions: HCV 1b-377-neo replicon cells; HCV 1b genotype; read-out: EC50 range against HCV 1b (Table 2, Range). The method, boiled down: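 FRET-based replicon assay in HCV 1b-377-neo cells, including a comparison line carrying the NS5A Y2065H mutation that confers resistance to a reference compound.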
In general terms: A replicon is a self-replicating genome or part of one, used to study replication in cells.
Regarding `CN(C)C(C(=O)N1CCCC1c1nc(-c2ccc(-c3ccc(-c4cnc(C5CCCN5C(=O)Cc5csc6ccccc56)[nH]4)cc3)cc2)c[nH]1)c1ccccc1` [Example 94-54, (1R)-2-((2S)-2-(5-(4′-(2-((2S)-1-(1-benzothiophen-3-ylacetyl)-2-pyrrolidinyl)-1H-imidazol-5-yl)-4-biphenylyl)-1H-imidazol-2-yl)-1-pyrrolidinyl)-N,N-dimethyl-2-oxo-1-phenylethanamine], the EC50 lay in the range of 0.001 to 0.999 nM.
As to `O=C([C@@H](c1ccccc1)N1CCCC1)N1CCC[C@H]1c1ncc(-c2ccc(-c3ccc(-c4cnc([C@@H]5CCCN5C(=O)[C@@H](c5ccccc5)N5CCOCC5)[nH]4)cc3)cc2)[nH]1` [Example 96, 4-((1R)-2-oxo-1-phenyl-2-((2S)-2-(5-(4′-(2-((2S)-1-((2R)-2-phenyl-2-(pyrrolidinyl)acetyl)-2-pyrrolidinyl)-1H-imidazol-5-yl)-4-biphenylyl)-1H-imidazol-2-yl)-1-pyrrolidinyl)ethyl)morpholine], the EC50 lay in the range of 0.001 to 0.999 nM.

The experiment is the same for the next values; noted with them: Hepatitis C virus, HCV 1b-377-neo replicon cells; HCV 1b genotype; read-out: EC50 range against HCV 1b (Table 2, Range).
Consider `CN(C)C(C(=O)N1CCC[C@H]1c1ncc(-c2ccc(-c3ccc(-c4cnc([C@@H]5CCCN5C(=O)[C@@H](c5ccccc5)N(C)C)[nH]4)cc3)cc2)[nH]1)c1ccc(Cl)nc1` (stereo partly drawn) [Example 94-44, 1-(6-chloro-3-pyridinyl)-2-((2S)-2-(5-(4′-(2-((2S)-1-((2R)-2-(dimethylamino)-2-phenylacetyl)-2-pyrrolidinyl)-1H-imidazol-5-yl)-4-biphenylyl)-1H-imidazol-2-yl)-1-pyrrolidinyl)-N,N-dimethyl-2-oxoethanamine], for which the EC50 lay in the range of 0.001 to 0.999 nM.
With `CN(C)C(C(=O)N1CCC[C@H]1c1ncc(-c2ccc(-c3ccc(-c4cnc([C@@H]5CCCN5C(=O)[C@@H](c5ccccc5)N(C)C)[nH]4)cc3)cc2)[nH]1)c1cccnc1` (stereo partly drawn) [Example 94-45, 2-((2S)-2-(5-(4′-(2-((2S)-1-((2R)-2-(dimethylamino)-2-phenylacetyl)-2-pyrrolidinyl)-1H-imidazol-5-yl)-4-biphenylyl)-1H-imidazol-2-yl)-1-pyrrolidinyl)-N,N-dimethyl-2-oxo-1-(3-pyridinyl)ethanamine], the EC50 is 0.001 to 0.999 nM.
With `CN(C)C(C(=O)N1CCC[C@H]1c1ncc(-c2ccc(-c3ccc(-c4cnc([C@@H]5CCCN5C(=O)[C@@H](c5ccccc5)N(C)C)[nH]4)cc3)cc2)[nH]1)c1ccccn1` (stereo partly drawn) [Example 94-46, 2-((2S)-2-(5-(4′-(2-((2S)-1-((2R)-2-(dimethylamino)-2-phenylacetyl)-2-pyrrolidinyl)-1H-imidazol-5-yl)-4-biphenylyl)-1H-imidazol-2-yl)-1-pyrrolidinyl)-N,N-dimethyl-2-oxo-1-(2-pyridinyl)ethanamine], the EC50 is 0.001 to 0.999 nM.
`CN(C)[C@@H](C(=O)N1CCC[C@H]1c1ncc(-c2ccc(-c3ccc(-c4cnc([C@@H]5CCCN5C(=O)Cc5cccs5)[nH]4)cc3)cc2)[nH]1)c1ccccc1` [Example 94-47, (1R)-N,N-dimethyl-2-oxo-1-phenyl-2-((2S)-2-(5-(4′-(2-((2S)-1-(2-thienylacetyl)-2-pyrrolidinyl)-1H-imidazol-5-yl)-4-biphenylyl)-1H-imidazol-2-yl)-1-pyrrolidinyl)ethanamine]: the EC50 lay within 0.001 to 0.999 nM.
Same read-out and setting: for `CN(C)[C@@H](C(=O)N1CCC[C@H]1c1ncc(-c2ccc(-c3ccc(-c4cnc([C@@H]5CCCN5C(=O)Cc5ccsc5)[nH]4)cc3)cc2)[nH]1)c1ccccc1` [Example 94-48, (1R)-N,N-dimethyl-2-oxo-1-phenyl-2-((2S)-2-(5-(4′-(2-((2S)-1-(3-thienylacetyl)-2-pyrrolidinyl)-1H-imidazol-5-yl)-4-biphenylyl)-1H-imidazol-2-yl)-1-pyrrolidinyl)ethanamine] the value was 0.001 to 0.999 nM; for `CN(C)[C@@H](C(=O)N1CCC[C@H]1c1ncc(-c2ccc(-c3ccc(-c4cnc([C@@H]5CCCN5C(=O)Cc5cccc6ccccc56)[nH]4)cc3)cc2)[nH]1)c1ccccc1` [Example 94-49, (1R)-N,N-dimethyl-2-((2S)-2-(5-(4′-(2-((2S)-1-(1-naphthylacetyl)-2-pyrrolidinyl)-1H-imidazol-5-yl)-4-biphenylyl)-1H-imidazol-2-yl)-1-pyrrolidinyl)-2-oxo-1-phenylethanamine], 0.001 to 0.999 nM; for `CN(C)[C@@H](C(=O)N1CCC[C@H]1c1ncc(-c2ccc(-c3ccc(-c4cnc([C@@H]5CCCN5C(=O)Cc5cnc[nH]5)[nH]4)cc3)cc2)[nH]1)c1ccccc1` [Example 94-50, (1R)-2-((2S)-2-(5-(4′-(2-((2S)-1-(1H-imidazol-5-ylacetyl)-2-pyrrolidinyl)-1H-imidazol-5-yl)-4-biphenylyl)-1H-imidazol-2-yl)-1-pyrrolidinyl)-N,N-dimethyl-2-oxo-1-phenylethanamine], 0.001 to 0.999 nM.
Same read-out and setting: in the case of `CN(C)[C@@H](C(=O)N1CCC[C@H]1c1ncc(-c2ccc(-c3ccc(-c4cnc([C@@H]5CCCN5C(=O)Cc5ccccc5F)[nH]4)cc3)cc2)[nH]1)c1ccccc1` [Example 94-51, (1R)-2-((2S)-2-(5-(4′-(2-((2S)-1-((2-fluorophenyl)acetyl)-2-pyrrolidinyl)-1H-imidazol-5-yl)-4-biphenylyl)-1H-imidazol-2-yl)-1-pyrrolidinyl)-N,N-dimethyl-2-oxo-1-phenylethanamine] it was 0.001 to 0.999 nM; in that of `CN(C)[C@@H](C(=O)N1CCC[C@H]1c1ncc(-c2ccc(-c3ccc(-c4cnc([C@@H]5CCCN5C(=O)Cc5cccc(F)c5)[nH]4)cc3)cc2)[nH]1)c1ccccc1` [Example 94-52, (1R)-2-((2S)-2-(5-(4′-(2-((2S)-1-((3-fluorophenyl)acetyl)-2-pyrrolidinyl)-1H-imidazol-5-yl)-4-biphenylyl)-1H-imidazol-2-yl)-1-pyrrolidinyl)-N,N-dimethyl-2-oxo-1-phenylethanamine], 0.001 to 0.999 nM; in that of `CN(C)[C@@H](C(=O)N1CCC[C@H]1c1ncc(-c2ccc(-c3ccc(-c4cnc([C@@H]5CCCN5C(=O)Cc5ccc(F)cc5)[nH]4)cc3)cc2)[nH]1)c1ccccc1` [Example 94-53, (1R)-2-((2S)-2-(5-(4′-(2-((2S)-1-((4-fluorophenyl)acetyl)-2-pyrrolidinyl)-1H-imidazol-5-yl)-4-biphenylyl)-1H-imidazol-2-yl)-1-pyrrolidinyl)-N,N-dimethyl-2-oxo-1-phenylethanamine], 0.001 to 0.999 nM.
Same read-out and setting: for `CN(C)[C@@H](C(=O)N1CCC[C@H]1c1ncc(-c2ccc(-c3ccc(-c4cnc([C@@H]5CCCN5C(=O)Cc5noc6ccccc56)[nH]4)cc3)cc2)[nH]1)c1ccccc1` [Example 94-55, (1R)-2-((2S)-2-(5-(4′-(2-((2S)-1-(1,2-benzisoxazol-3-ylacetyl)-2-pyrrolidinyl)-1H-imidazol-5-yl)-4-biphenylyl)-1H-imidazol-2-yl)-1-pyrrolidinyl)-N,N-dimethyl-2-oxo-1-phenylethanamine] the value was 0.001 to 0.999 nM.
Regarding `CN(C)[C@@H](C(=O)N1CCC[C@H]1c1ncc(-c2ccc(-c3ccc(-c4cnc([C@@H]5CCCN5C(=O)Cc5c[nH]c6ccccc56)[nH]4)cc3)cc2)[nH]1)c1ccccc1` [Example 94-56, (1R)-2-((2S)-2-(5-(4′-(2-((2S)-1-(1H-indol-3-ylacetyl)-2-pyrrolidinyl)-1H-imidazol-5-yl)-4-biphenylyl)-1H-imidazol-2-yl)-1-pyrrolidinyl)-N,N-dimethyl-2-oxo-1-phenylethanamine], the EC50 lay in the range of 0.001 to 0.999 nM.
Consider `O=C([C@@H]1CCCO1)N1CCC[C@H]1c1ncc(-c2ccc(-c3ccc(-c4cnc([C@@H]5CCCN5C(=O)[C@@H](c5ccccc5)N5CCCC5)[nH]4)cc3)cc2)[nH]1` [Example 95, 2-((2S)-1-((2R)-2-phenyl-2-(1-pyrrolidinyl)acetyl)-2-pyrrolidinyl)-5-(4′-(2-((2S)-1-((2S)-tetrahydro-2-furanylcarbonyl)-2-pyrrolidinyl)-1H-imidazol-5-yl)-4-biphenylyl)-1H-imidazole], for which the EC50 was in the range of 0.001 to 0.999 nM.
`O=C(C(c1ccccc1)N1CCC(O)CC1)N1CCC[C@H]1c1ncc(-c2ccc(-c3ccc(-c4cnc([C@@H]5CCCN5C(=O)[C@@H](c5ccccc5)N5CCCC5)[nH]4)cc3)cc2)[nH]1` (stereo partly drawn) [Example 97, 1-(2-oxo-1-phenyl-2-((2S)-2-(5-(4′-(2-((2S)-1-((2R)-2-phenyl-2-(1-pyrrolidinyl)acetyl)-2-pyrrolidinyl)-1H-imidazol-5-yl)-4-biphenylyl)-1H-imidazol-2-yl)-1-pyrrolidinyl)ethyl)-4-piperidinol]: the EC50 was 0.001 to 0.999 nM.
Still for that read-out and setting: in the case of `CN1CCN(C(C(=O)N2CCC[C@H]2c2ncc(-c3ccc(-c4ccc(-c5cnc([C@@H]6CCCN6C(=O)[C@@H](c6ccccc6)N6CCCC6)[nH]5)cc4)cc3)[nH]2)c2ccccc2)CC1` (stereo partly drawn) [Example 98, 1-methyl-4-(2-oxo-1-phenyl-2-((2S)-2-(5-(4′-(2-((2S)-1-((2R)-2-phenyl-2-(1-pyrrolidinyl)acetyl)-2-pyrrolidinyl)-1H-imidazol-5-yl)-4-biphenylyl)-1H-imidazol-2-yl)-1-pyrrolidinyl)ethyl)piperazine] it was 0.001 to 0.999 nM.
As for `CCN(CC)[C@@H](C(=O)N1CCC[C@H]1c1ncc(-c2ccc(-c3ccc(-c4cnc([C@@H]5CCCN5C(=O)[C@@H](c5ccccc5)N5CCCC5)[nH]4)cc3)cc2)[nH]1)c1ccccc1` [Example 99, (1R)-N,N-diethyl-2-oxo-1-phenyl-2-((2S)-2-(5-(4′-(2-((2S)-1-((2R)-2-phenyl-2-(1-pyrrolidinyl)acetyl)-2-pyrrolidinyl)-1H-imidazol-5-yl)-4-biphenylyl)-1H-imidazol-2-yl)-1-pyrrolidinyl)ethanamine], the EC50 was in the range of 0.001 to 0.999 nM.
On the same count and under the same terms, in the case of `COC(=O)N[C@@H](C(=O)N1CCC[C@H]1c1ncc(-c2ccc(-c3ccc(-c4cnc([C@@H]5CCCN5C(=O)[C@@H](c5ccccc5)N5CCCC5)[nH]4)cc3)cc2)[nH]1)c1ccccc1` [Example 100, methyl ((1R)-2-oxo-1-phenyl-2-((2S)-2-(5-(4′-(2-((2S)-1-((2R)-2-phenyl-2-(1-pyrrolidinyl)acetyl)-2-pyrrolidinyl)-1H-imidazol-5-yl)-4-biphenylyl)-1H-imidazol-2-yl)-1-pyrrolidinyl)ethyl)carbamate] it was 0.001 to 0.999 nM.

As a reminder, the EC50 is the concentration giving half of the maximal effect.
